Measured values as given in patent US4321260A, “Method of using gonadorelin for the treatment of benign prostatic hyperplasia” (Ayerst, McKenna & Harrison Inc., priority 1980, dated 1982).
Entries after “also recorded” stand apart in the source; their conditions may differ.

What was measured:
[1] = system: seminal vesicles; experiment: 3-week daily s.c. treatment of male rats, weight of the seminal vesicles; assay type: in vivo, Sprague-Dawley rats; settings: for weight of the seminal vesicles (wet weight): male rats
Procedure: (§1) Adult male Sprague-Dawley rats weighing 275-325 g upon arrival were obtained from Canadian Breeding Laboratories, St. Constant, Quebec, Canada. All animals were housed 2 per cage in an air-conditioned (21±1° C.; 45-50% humidity) and light (12 hours light, 12 hours darkness)-controlled room and given food and water ad libitum. […] Rats were killed by decapitation 24 hours after the last injection. The testes, seminal vesicles and ventral prostate were removed, chilled, weighed and kept frozen at -20° C. until use.

[2] = system: ventral prostate; experiment: 3-week daily s.c. treatment of male rats, weight of the ventral prostate; assay type: in vivo, Sprague-Dawley rats; settings: for weight of the ventral prostate (wet weight): male rats
Procedure: as §1

[3] = system: testes; settings: in vivo; cited from earlier work
[4] = 25μg s.c. daily, 1 week of treatment
[5] = 25μg s.c. daily, 2 weeks of treatment
[6] = 25μg s.c. daily, 3 weeks of treatment
[7] = 250μg s.c. daily, 1 week of treatment
[8] = 250μg s.c. daily, 2 weeks of treatment
[9] = 250μg s.c. daily, 3 weeks of treatment
[10] = 2500μg s.c. daily, 1 week of treatment
[11] = 2500μg s.c. daily, 2 weeks of treatment
[12] = 2500μg s.c. daily, 3 weeks of treatment
[13] = daily subcutaneous administration to male rats up to three weeks, listed as gonadorelin

In the case of CC(C)C[C@H](NC(=O)CNC(=O)[C@H](Cc1ccc(O)cc1)NC(=O)[C@H](CO)NC(=O)[C@H](Cc1c[nH]c2ccccc12)NC(=O)[C@H](Cc1cnc[nH]1)NC(=O)[C@@H]1CCC(=O)N1)C(=O)N[C@@H](CCCNC(=N)N)C(=O)N1CCC[C@H]1C(=O)NCC(N)=O [LH-RH, Pyr-His-Trp-Ser-Tyr-Gly-Leu-Arg-Pro-Gly-NH2], the “weight of the seminal vesicles (wet weight)” value (from here on “weight of the seminal vesicles”) [1, 4] is reported as 281 ± 14 mg, the “weight of the seminal vesicles” value [1, 5] is reported as 247 ± 9 mg and the “weight of the seminal vesicles” value [1, 6] is reported as 260 ± 13 mg. The “weight of the seminal vesicles” value [1, 7] was 298 ± 10 mg, the “weight of the seminal vesicles” value [1, 8] was 249 ± 18 mg and the “weight of the seminal vesicles” value [1, 9] was 210 ± 8 mg. The “weight of the seminal vesicles” value [1, 10] was 265 ± 10 mg, the “weight of the seminal vesicles” value [1, 11] was 236 ± 13 mg and the “weight of the seminal vesicles” value [1, 12] was 225 ± 9 mg. The “effect on the weight of seminal vesicles (in words)” value [1, 13] was “significant decrease; also recorded: significantly decreases”, the “weight of the ventral prostate (wet weight)” value (“weight of the ventral prostate” for short) [2, 4] was 359 ± 23 mg and the “weight of the ventral prostate” value [2, 5] was 415 ± 31 mg. For the same molecule, the “weight of the ventral prostate” value [2, 6] was 378 ± 13 mg, the “weight of the ventral prostate” value [2, 7] was 360 ± 26 mg and the “weight of the ventral prostate” value [2, 8] was 380 ± 38 mg. The “weight of the ventral prostate” value [2, 9] was 370 ± 25 mg, the “weight of the ventral prostate” value [2, 10] was 325 ± 12 mg and the “weight of the ventral prostate” value [2, 11] was 355 ± 31 mg. The “weight of the ventral prostate” value [2, 12] was 373 ± 18 mg and the “effect on ventral prostate weight (in words)” value [2, 13] was “significant decrease; also recorded: significantly decreases”.

In the case of “[D-Ala^6, des-Gly-NH2^10 ]-LH-RH ethylamide”, the “selective effect (decrease of seminal vesicle and ventral prostate weight while not affecting testicular weight)” value [3] is listed as “do not show such a selectivity”.

For “[D-Leu^6,des-Gly-NH2^10 ]-LH-RH ethylamide”, the “selective effect (decrease of seminal vesicle and ventral prostate weight while not affecting testicular weight)” value [3] is listed as “do not show such a selectivity”.
